Literature values as cited in patent US7332525B2, “Method of treatment of prostate cancer and composition for treatment thereof” (priority 2003, dated 2008).

Columns and labels:
[1] = system: metastasized prostate cancer; settings: in vivo
[2] = system: metastasized, hormone refractory prostate cancer; settings: high doses of tamoxifen alone; patients with metastasized and hormone refractory prostate cancer

In the case of `O=C(c1ccc(OCCN2CCCCC2)cc1)c1c(-c2ccc(O)cc2)sc2cc(O)ccc12` [raloxifene, 6-hydroxy-2(4-hydroxyphenyl)-3-[4-(2-piperdinoethoxy)benzoyl]benzo[b]thiophene], the “effect on the progression of metastasized prostate cancer” value [1] is listed as “some effect”.

For `CN(C)CCOc1ccc(C(=C(CCCl)c2ccccc2)c2ccccc2)cc1` [toremifene, 4-chloro-1,2-diphenyl-1-{4-[2-(N,N-dimethylamino)ethoxy]-phenyl}-1-butene], the “effect on the progression of metastasized prostate cancer” value [1] is given as “some effect”.

For `CC/C(=C(\c1ccccc1)c1ccc(OCCN(C)C)cc1)c1ccccc1.O=C(O)CC(O)(CC(=O)O)C(=O)O` [tamoxifen, (Z)2-[4-(1,2-diphenyl-1-butenyl)phenoxy]-N, N-dimethylethanamine 2-hydroxy-1,2,3-propanetricarboxylate (1:1)], the “effect on prostate cancer cells” value [2] is given as “some effect”.
